Measured values published in ChEMBL document CHEMBL5505968, “Hybrids of selective COX-2 inhibitors and active derivatives of edaravone as COX-2 selective NSAIDs with free radical scavenging activity: Design, synthesis and biological activities” (Eur J Med Chem, 2024).

Experiments:
[1] = Antioxidant activity assessed as DPPH radical scavenging activity incubated for 30 mins by thermo-microplate photometric analysis; type: functional
Liver [2] = test: Antioxidant activity against FeCl2 induced oxidative stress in ICR mouse liver assessed as inhibition of malondialdehyde level at 500 uM incubated for 60 mins by thermo-microplate photometric analysis relative to control; type: functional; conditions: 1 h
Liver [3] = test: Antioxidant activity against FeCl2 induced oxidative stress in ICR mouse liver assessed as inhibition of malondialdehyde level at 250 uM incubated for 60 mins by thermo-microplate photometric analysis relative to control; type: functional; conditions: 1 h
Liver [4] = test: Antioxidant activity against FeCl2 induced oxidative stress in ICR mouse liver assessed as inhibition of malondialdehyde level at 1000 uM incubated for 60 mins by thermo-microplate photometric analysis relative to control; type: functional; conditions: 1 h
[5] = Antioxidant activity assessed as DPPH radical scavenging activity at 40 uM incubated for 30 mins by thermo-microplate photometric analysis relative to control; type: functional
Mus musculus [6] = test: Analgesic activity against acetic acid-induced ICR mouse assessed as number of writhing at 20 mg/kg,ip pre-administrated with compound for 15 mins followed by acetic acid addition and measured after 15 mins; type: functional; conditions: time 30 min, 0.5 h
Mus musculus [7] = test: Analgesic activity against acetic acid-induced ICR mouse assessed as inhibition of writhing at 20 mg/kg,ip pre-administrated with compound for 15 mins followed by acetic acid addition and measured after 15 mins; type: functional; conditions: 0.5 h, time 30 min
[8] = molecular target: Prostaglandin G/H synthase 2 (Homo sapiens) (UniProt P35354); test: Inhibition of COX-2 (unknown origin) using arachidonic acid as substrate at 1 uM preincubated for 10 mins followed by substrate addition and measured after 5 mins by fluorescence based analysis relative to control; conditions: time 15.0 min
Sequence of Prostaglandin G/H synthase 2 (Homo sapiens) (P35354 whole entry, looked up): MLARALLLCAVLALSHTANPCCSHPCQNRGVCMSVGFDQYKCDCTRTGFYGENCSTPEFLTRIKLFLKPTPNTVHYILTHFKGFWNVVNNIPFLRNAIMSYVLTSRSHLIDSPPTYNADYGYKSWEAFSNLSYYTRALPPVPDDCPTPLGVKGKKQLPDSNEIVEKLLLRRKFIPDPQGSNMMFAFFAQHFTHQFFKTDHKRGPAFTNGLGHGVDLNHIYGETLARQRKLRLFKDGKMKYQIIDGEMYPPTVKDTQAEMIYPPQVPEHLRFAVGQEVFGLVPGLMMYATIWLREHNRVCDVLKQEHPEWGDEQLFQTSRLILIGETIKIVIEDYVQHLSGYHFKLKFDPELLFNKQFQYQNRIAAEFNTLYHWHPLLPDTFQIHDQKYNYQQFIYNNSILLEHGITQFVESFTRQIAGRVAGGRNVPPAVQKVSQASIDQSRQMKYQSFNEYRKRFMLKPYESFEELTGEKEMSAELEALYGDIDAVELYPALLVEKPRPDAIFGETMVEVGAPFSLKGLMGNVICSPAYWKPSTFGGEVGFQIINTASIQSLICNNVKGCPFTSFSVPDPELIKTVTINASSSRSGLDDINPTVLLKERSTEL

[9] = molecular target: Prostaglandin G/H synthase 2 (Homo sapiens) (UniProt P35354); test: Inhibition of COX-2 (unknown origin) using arachidonic acid as substrate at 10 uM preincubated for 10 mins followed by substrate addition and measured after 5 mins by fluorescence based analysis relative to control; conditions: time 15.0 min
Mus musculus [10] = test: Analgesic activity against acetic acid-induced ICR mouse assessed as number of writhing at 50 mg/kg,ip pre-administrated with compound for 15 mins followed by acetic acid addition and measured after 15 mins; type: functional; conditions: time 30 min, 0.5 h
[11] = MRT (0 to infinity) in ICR mouse at 1 mg/kg,iv administration measured for 0.25 to 8 hrs by LC-MS/MS analysis; type: ADME, organism-based; conditions: in vivo, time 0.25-8 hrs
[12] = Half life in ICR mouse at 1 mg/kg,iv administration measured for 0.25 to 8 hrs by LC-MS/MS analysis; type: ADME, organism-based; conditions: in vivo, time 0.25-8 hrs
[13] = Bioavailability in ICR mouse at 1 mg/kg,iv administration measured for 0.25 to 8 hrs by LC-MS/MS analysis; type: ADME, organism-based; conditions: in vivo, time 0.25-8 hrs
[14] = Clearance in ICR mouse at 10 mg/kg,po administration measured for 0.25 to 8 hrs by LC-MS/MS analysis; type: ADME, organism-based; conditions: in vivo, time 0.25-8 hrs
[15] = Half life in ICR mouse at 10 mg/kg,po administration measured for 0.25 to 8 hrs by LC-MS/MS analysis; type: ADME, organism-based; conditions: in vivo, time 0.25-8 hrs
[16] = Cmax in ICR mouse at 1 mg/kg,iv administration measured for 0.25 to 8 hrs by LC-MS/MS analysis; type: ADME, organism-based; conditions: in vivo, time 0.25-8 hrs
[17] = AUC (0 to t) in ICR mouse at 1 mg/kg,iv administration measured for 0.25 to 8 hrs by LC-MS/MS analysis; type: ADME, organism-based; conditions: in vivo, time 0.25-8 hrs
[18] = AUC (0 to t) in ICR mouse at 10 mg/kg,po administration measured for 0.25 to 8 hrs by LC-MS/MS analysis; type: ADME, organism-based; conditions: in vivo, time 0.25-8 hrs
[19] = Apparent volume of distribution in ICR mouse at 10 mg/kg,po administration measured for 0.25 to 8 hrs by LC-MS/MS analysis; type: ADME, organism-based; conditions: in vivo, time 0.25-8 hrs
[20] = Apparent volume of distribution in ICR mouse at 1 mg/kg,iv administration measured for 0.25 to 8 hrs by LC-MS/MS analysis; type: ADME, organism-based; conditions: in vivo, time 0.25-8 hrs, read-out: Vz
[21] = Tmax in ICR mouse at 10 mg/kg,po administration measured for 0.25 to 8 hrs by LC-MS/MS analysis; type: ADME, organism-based; conditions: in vivo, time 0.25-8 hrs
[22] = Tmax in ICR mouse at 1 mg/kg,iv administration measured for 0.25 to 8 hrs by LC-MS/MS analysis; type: ADME, organism-based; conditions: in vivo, time 0.25-8 hrs
Mus musculus [23] = test: Analgesic activity against acetic acid-induced ICR mouse assessed as inhibition of writhing at 50 mg/kg,ip pre-administrated with compound for 15 mins followed by acetic acid addition and measured after 15 mins; type: functional; conditions: 0.5 h, time 30 min
[24] = AUC (0 to infinity) in ICR mouse at 1 mg/kg,iv administration measured for 0.25 to 8 hrs by LC-MS/MS analysis; type: ADME, organism-based; conditions: in vivo, time 0.25-8 hrs
[25] = AUC (0 to infinity) in ICR mouse at 10 mg/kg,po administration measured for 0.25 to 8 hrs by LC-MS/MS analysis; type: ADME, organism-based; conditions: in vivo, time 0.25-8 hrs
[26] = MRT (0 to infinity) in ICR mouse at 10 mg/kg,po administration measured for 0.25 to 8 hrs by LC-MS/MS analysis; type: ADME, organism-based; conditions: in vivo, time 0.25-8 hrs
[27] = Clearance in ICR mouse at 1 mg/kg,iv administration measured for 0.25 to 8 hrs by LC-MS/MS analysis; type: ADME, organism-based; conditions: in vivo, time 0.25-8 hrs
[28] = Cmax in ICR mouse at 10 mg/kg,po administration measured for 0.25 to 8 hrs by LC-MS/MS analysis; type: ADME, organism-based; conditions: in vivo, time 0.25-8 hrs

Compound: CC1=NN(c2ccccc2)C(=O)C1 [EDARAVONE]
- IC50 [1]: 32.8 µM
- inhibition at 500 µM (Liver [2]): 46.9%
- inhibition at 250 µM (Liver [3]): 37.7%
- inhibition at 1000 µM (Liver [4]): 62.2%
- inhibition [5]: 64.3%

Compound: Cc1ccc(-c2cc(C(F)(F)F)nn2-c2ccc(S(N)(=O)=O)cc2)cc1 [CELECOXIB]
- Activity (Mus musculus [6]): 7.1
- inhibition in vivo at 20 mg/kg (Mus musculus [7]): 80.9%

Compound: Cc1nn(-c2ccccc2)c(O)c1Cc1ccc(CC(=O)O)cc1
- inhibition [8]: 78%
- inhibition [9]: 86.5%
- inhibition [5]: 38.5%

Compound: Cc1nn(-c2ccc(Cl)cc2)c(O)c1Cc1ccc(C(=O)O)cc1
- inhibition [8]: 46%
- inhibition [9]: 78.5%
- inhibition [5]: 36.1%

Compound: Cc1nn(-c2ccccc2)c(O)c1Cc1ccc(S(C)(=O)=O)cc1
- inhibition [8]: 77.5%
- inhibition [9]: 90%
- inhibition [5]: 37.1%

Compound: O=C(NO)c1ccc(Cc2c(C3CC3)[nH]n(-c3ccccc3)c2=O)cc1
- inhibition [8]: 55%
- inhibition [9]: 72.5%
- inhibition [5]: 64.7%

Compound: COc1cccc(-n2nc(C)c(Cc3ccc(C(=O)NO)cc3)c2O)c1
- inhibition [8]: 78%
- inhibition [9]: 89%
- inhibition [5]: 43.3%

Compound: Cc1nn(-c2ccc(Cl)c(Cl)c2)c(O)c1Cc1ccc(C(=O)NO)cc1
- inhibition [8]: 58.5%
- inhibition [9]: 80.5%
- inhibition [5]: 58.1%

Compound: CCc1nn(-c2ccccc2)c(O)c1Cc1ccc(C(=O)O)cc1
- inhibition [8]: 63.5%
- inhibition [9]: 83.5%
- inhibition [5]: 42.7%

Compound: CC(C)(C)c1nn(-c2ccccc2)c(O)c1Cc1ccc(C(=O)O)cc1
- inhibition [8]: 54.5%
- inhibition [9]: 73%
- inhibition [5]: 49.9%

Compound: Cc1nn(-c2ccccc2)c(O)c1Cc1cccc(C(=O)O)c1
- inhibition [8]: 63.5%
- inhibition [9]: 94.5%
- inhibition [5]: 17.4%

Compound: CC(C)(C)c1nn(-c2ccccc2)c(O)c1Cc1ccc(C(=O)NO)cc1
- inhibition [8]: 75%
- IC50 [1]: 19.6 µM
- inhibition [9]: 89%
- inhibition [5]: 72.9%

Compound: Cc1nn(-c2cccc(Cl)c2)c(O)c1Cc1ccc(C(=O)O)cc1
- inhibition [8]: 45.5%
- inhibition [9]: 75%
- inhibition [5]: 35.8%

Compound: Cc1[nH]n(-c2ccccc2)c(=O)c1Cc1cccc(C(=O)NO)c1
- inhibition [8]: 66.5%
- inhibition [9]: 86%
- inhibition [5]: 11%

Compound: Cc1nn(-c2ccccc2)c(O)c1Cc1cccc(S(C)(=O)=O)c1
- inhibition [8]: 77.5%
- inhibition [9]: 84.5%
- inhibition [5]: 22.8%

Compound: CCc1nn(-c2ccccc2)c(O)c1Cc1ccc(C(=O)NO)cc1
- inhibition [8]: 70.5%
- IC50 [1]: 22.1 µM
- inhibition [9]: 82.5%
- inhibition [5]: 67.7%

Compound: Cc1[nH]n(-c2ccccc2)c(=O)c1Cc1ccc(C(=O)NO)cc1
- inhibition [8]: 87%
- Activity (Mus musculus [10]): 9.8
- MRT inf [11]: 1.08 h
- IC50 [1]: 19.9 µM
- half-life [12]: 2.74 h
- bioavailability [13]: 36%
- CL/F [14]: 0.355 L/h/kg
- half-life [15]: 4.16 h
- inhibition at 500 µM (Liver [2]): 62.3%
- Cmax [16]: 12.2 µg/mL
- AUC(0-t) [17]: 7.68 µg·h/mL
- AUC(0-t) [18]: 20.3 µg·h/mL
- inhibition [9]: 98%
- inhibition at 250 µM (Liver [3]): 51.9%
- inhibition at 1000 µM (Liver [4]): 77.3%
- Activity (Mus musculus [6]): 11.1
- Vz [19]: 2.13507 L/kg
- Vd [20]: 0.508 L/kg
- Tmax [21]: 1 h
- Tmax [22]: 4.8 min
- inhibition in vivo at 50 mg/kg (Mus musculus [23]): 73.7%
- AUC(0-inf) [24]: 7.87 µg·h/mL
- inhibition in vivo at 20 mg/kg (Mus musculus [7]): 70.2%
- AUC(0-inf) [25]: 28.4 µg·h/mL
- MRT inf [26]: 6.32 h
- clearance [27]: 0.127 L/h/kg
- inhibition [5]: 71.6%
- Cmax [28]: 4.51 µg/mL

Compound: COc1cccc(-n2nc(C)c(Cc3ccc(C(=O)O)cc3)c2O)c1
- inhibition [8]: 58.5%
- inhibition [9]: 79%
- inhibition [5]: 33.6%

Compound: Cc1nn(-c2ccc(Cl)cc2)c(O)c1Cc1ccc(C(=O)NO)cc1
- inhibition [8]: 64.5%
- inhibition [9]: 78.5%
- inhibition [5]: 68%

Compound: O=C(O)c1ccc(Cc2c(C3CC3)nn(-c3ccccc3)c2O)cc1
- inhibition [8]: 57.5%
- inhibition [9]: 82%
- inhibition [5]: 37.3%

Compound: Cc1nn(-c2ccccc2)c(O)c1Cc1ccc(C(=O)O)cc1
- inhibition [8]: 85.5%
- inhibition [9]: 95%
- inhibition [5]: 37.7%

Compound: Cc1nn(-c2ccc(Cl)c(Cl)c2)c(O)c1Cc1ccc(C(=O)O)cc1
- inhibition [8]: 50.5%
- inhibition [9]: 81%
- inhibition [5]: 38.6%

Compound: Cc1nn(-c2cccc(Cl)c2)c(O)c1Cc1ccc(C(=O)NO)cc1
- inhibition [8]: 75%
- IC50 [1]: 23.8 µM
- inhibition [9]: 90.5%
- inhibition [5]: 69.2%
